Measured values taken from US8088916B2, “Hyaluronic acid-methotrexate conjugate” (priority 2004, dated 2012).

Columns and labels:
[1] = tested on: mBSA-induced monoarthritis model; assay: Suppressive effect on knee joint swelling in mBSA-induced monoarthritis model; type: in vivo, rat; conditions: for AUC (% of control) (mean ± SEM): AUC of knee joint swelling to two weeks after induction, control = HA-treated group, 50 μL into right knee joint 7 and 1 day before and 7 days after induction
Protocol: An in vivo synovitis-suppressing effect of each HA-MTX conjugate of the invention was assessed on the basis of a suppressive effect on knee joint swelling in a methylated bovine serum albumin (mBSA)-induced monoarthritis model of rat. Since the mBSA-induced arthritis model employed in this experimental example is widely used as an antigen-induced arthritis model, and known to develop synovitis (Sven E. Andersson, et al., The Journal of Rheumatology (1998) 25: 9, 1772-7), the in vivo knee joint swelling-suppressing effect observed in this model conceivably represents a synovitis-suppressing effect. The compounds of the invention suppressing synovitis in vivo are useful as therapeutic drugs for joint diseases accompanied by synovitis (RA, OA, and the like).
The animal used was the LEW/Crj rat (6-week old male, from Charles River Laboratories Japan, Inc.). Into the flank of the rat was subcutaneously injected 0.5 mL of an emulsion prepared from a 2 mg/mL mBSA (Calbiochem) aqueous solution and an equal amount of Freund's complete adjuvant (Difco) 21 and 14 days before inducing arthritis. The arthritis was induced by administering 50 μL of a 2 mg/mL mBSA aqueous solution into the right knee joint. The left knee joint was untreated, and served as control in each individual. Each test substance (sterile aqueous solution) and the control drug hyaluronic acid were each administered into the right knee joint in an amount of 50 μL 7 and 1 day before and 7 days after inducing arthritis.
The determination of knee joint swelling involved measuring the widths of both knee joints with calipers to define the left/right difference (right knee diameter-left knee diameter) as a knee joint swelling. The width of each knee joint was measured at a frequency of twice a week from immediately before inducing arthritis to two weeks later to calculate AUC (an abbreviation for Area Under the Curve; here, it means an area under a curve with time for the joint swelling) from the transition thereof with time. At each measurement, the mean and standard deviation of AUC were calculated to perform an unpaired t-test between each test substance-treated group and the HA-treated group, and significant difference was judged to be present if the probability level is less than 5%. Statistical analysis used SAS version 6.12 (SAS Institute Japan). In addition, the AUC of each test substance was calculated, using that in the HA-treated group as a control, as a relative value (% of control) therefor.
To verify the usefulness of the HA-MTX conjugate of the invention, the suppressive effect on joint swelling was compared, in accordance with the method of Example 3, among: 1) a group treated with the HA-MTX conjugate (sterile aqueous solution) prepared in Example 2-2; 2) a group treated with a solution containing MTX of an amount equal to that of MTX contained in the HA-MTX conjugate; and 3) a group of treated with a mixture (HA+MTX) of MTX and hyaluronic acid (HA) of amounts equal to those contained in the conjugate. The transition of knee joint swelling with time in this test is shown in FIG. 2, and the AUC thereof in FIG. 3.

[2] = tested on: collagenase-induced arthritis (OA) model; assay: Suppressive effect on knee joint swelling in collagenase-induced arthritis (OA) model; type: in vivo, rat; conditions: AUC of knee joint swelling to 20 days after induction; 50 μL into right knee joint once a week from 7 and 1 day before induction; compared with HA-treated group
Protocol: An in vivo synovitis-suppressing effect of the HA-MTX conjugate was evaluated in collagenase-induced OA model rats. The collagenase-induced OA model is a model in which inflammation has been induced within the knee joint by injecting collagenase into the knee joint to directly digest collagen in cartilage tissue. […] Therefore, the compound of the invention suppressing inflammation in the model and inhibiting cartilage degeneration therein will be useful as a therapeutic drug for OA.
The animal used was the SD/Crj rat (6-week old male, from Charles River Laboratories Japan, Inc.). Into the articular cavity of the right knee was administered 50 μL of 1.5% collagenase (Sigma) solution to induce arthritis. The left knee joint was untreated to use as a control in each individual. Each test substance was administered into the right knee joint in an amount of 50 μL once a week from 7 and 1 day before inducing arthritis.
The determination of knee joint swelling involved measuring the widths of both knee joints with calipers to determine the left/right difference (right knee diameter-left knee diameter), which was defined as a knee joint swelling. The width of each knee joint was measured on the order of twice a week from immediately before inducing arthritis to 20 days later to calculate AUC from a graph showing the transition thereof with time. At each measurement, the mean and standard error of the mean of AUC were calculated to perform an unpaired t-test between each test substance-treated group and the HA-treated group, and significant difference was judged to be present if the probability level is less than 5%.

[3] = tested on: human synovial cells (HFLS); assay: Anti-proliferative effect on synovial cells stimulated by TNF-α ([3H]-deoxyuridine uptake); type: cell-based; conditions: TNF-α 10 ng/mL, 5 days culture, concentration calculated as MTX from conjugation rate
Text: An effect of the HA-MTX conjugates of the invention on cell proliferation induced by TNF-α stimulation was examined using human synovial cells (HFLS). The main lesion in rheumatoid arthritis (RA) occurs in the synovial tissue, and, as one of the features, it is known that synovial cells abnormally proliferate to form a granulation tissue (pannus) and thereby destroy the cartilage and bone of the joint. Secondary synovitis is also observed in osteoarthritis (OA). […] Thus, a compound inhibiting the proliferation of synovial cells stimulated by the inflammatory cytokine TNF-α suppresses the progression of the pathologic conditions of RA and OA and becomes a therapeutic drug therefor. The sterile aqueous solutions of the HA-MTX conjugates in Example 2 (Table 2) were used as test substances. HFLS (CA40405, Lot Nos. 1413 and 1493) was purchased from Cell Applications Ins. for use. HFLS was seeded at 5,000 cells/well on a 96-well plate (Falcon) and cultured for 3 hours in Iscove's modified Dulbecco's medium (IMDM) containing 5% FBS and 1× Antibiotic-Antimycotic (GIBOC). After cellular attachment, TNF-α (final concentration: 10 ng/mL) and each HA-MTX conjugate at each concentration was added, followed by cultivation for 5 days. Two days before the end of culture, was added 37 kBq/well of [^3H]-deoxyuridine in the cells (MORAVEK), followed by determining the uptake quantity (radioactivity) of [^3H]-deoxyuridine using a scintillation counter. Cells were recovered by unsticking them with 0.05% trypsin-0.2% EDTA. Radioactivity determined in each of the experiments with each test substance was calculated as a relative value (% of control), using, as control, radioactivity in the group of cells cultured without adding any test substance. […] GraphPad Prism 3.02).

[4] = Measurement of viscoelasticity; type: physicochemical; conditions: sterile solutions, 37° C., cone 4 cm, CSL500 stress-controlled rheometer; FIG. 1
Protocol: The viscoelasticities of the sterile solutions of hyaluronic acids (molecular weights: 1,900,000 and 800,000) and the conjugates of Examples 2-1, 2-8, 2-18, 2-27, and 2-29 were measured at 37° C. using a cone 4 cm in diameter by a CSL500 stress-controlled rheometer (from Carri-Med Ltd.).

[5] = tested on: arthritis model in which pathosis occurs in the knee joint; assay: Intra-articular administration to an arthritis model in which pathosis occurs in the knee joint; type: in vivo; conditions: intra-articularly administered; summary statement

## MTX-α-Ile-NHC10H20O3NH-HA [Example 2-27]
[1]
  AUC (% of control) (mean ± SEM): 75.1 ± 6.8 % of control
[2]
  AUC (% of control) (mean ± SEM): 82.6 ± 5.2 % of control
[3]
  IC50: 3100 nM
[4]
  viscoelasticity: viscoelasticities intermediate between those of the hyaluronic acids having molecular weights of 800,000 and 1,900,000

## MTX-α-PheGly-NHC10H20O3NH-HA [Example 2-18]
[1]
  AUC (% of control) (mean ± SEM): 61.5 ± 4.7 % of control
[2]
  AUC (% of control) (mean ± SEM): 65.9 ± 3.5 % of control
[3]
  IC50: 9200 nM
[4]
  viscoelasticity: viscoelasticities intermediate between those of the hyaluronic acids having molecular weights of 800,000 and 1,900,000

## MTX-α-PhePhe-NHC2H4NH-HA [Example 2-1]
[1]
  AUC (% of control) (mean ± SEM): 48.5 ± 5.3 % of control
[2]
  AUC (% of control) (mean ± SEM): 45.7 ± 3.9 % of control
[3]
  IC50: 360 nM
[4]
  viscoelasticity: viscoelasticities intermediate between those of the hyaluronic acids having molecular weights of 800,000 and 1,900,000

## MTX-α-PhePhe-NHC2H4NH-HA [Example 2-2]
[1]
  AUC (% of control) (mean ± SEM): 45.0 ± 6.8 % of control
[1]; Experimental Example 4: conjugate vs equal amount of MTX vs mixture HA+MTX, FIGS. 2 and 3
  suppressive effect on joint swelling / alleviating effect on synovitis: markedly strong suppressive effect on the joint swelling in the arthritis model compared to that of MTX alone or the mixture of MTX and HA
[2]
  AUC (% of control) (mean ± SEM): 48.9 ± 3.7 % of control
[3]
  IC50: 140 nM

## MTX-α-PhePhe-NHC10H2OO3NH-HA [Example 2-8]
[1]
  AUC (% of control) (mean ± SEM): 54.9 ± 7.2 % of control
[2]
  AUC (% of control) (mean ± SEM): 54.8 ± 5.9 % of control
[3]
  IC50: 840 nM
[4]
  viscoelasticity: viscoelasticities intermediate between those of the hyaluronic acids having molecular weights of 800,000 and 1,900,000

## hyaluronic acid [HA]
[5]
  alleviating effect on synovitis: not seen with HA
